Holding throughout (test): biolayer interferometry
What all share (type): binding

Assay [1] has as its target T1, PX domain containing serine/threonine kinase-like (PXK) (Homo sapiens, UniProt Q7Z7A4).
T1 sequence (Q7Z7A4 1-578): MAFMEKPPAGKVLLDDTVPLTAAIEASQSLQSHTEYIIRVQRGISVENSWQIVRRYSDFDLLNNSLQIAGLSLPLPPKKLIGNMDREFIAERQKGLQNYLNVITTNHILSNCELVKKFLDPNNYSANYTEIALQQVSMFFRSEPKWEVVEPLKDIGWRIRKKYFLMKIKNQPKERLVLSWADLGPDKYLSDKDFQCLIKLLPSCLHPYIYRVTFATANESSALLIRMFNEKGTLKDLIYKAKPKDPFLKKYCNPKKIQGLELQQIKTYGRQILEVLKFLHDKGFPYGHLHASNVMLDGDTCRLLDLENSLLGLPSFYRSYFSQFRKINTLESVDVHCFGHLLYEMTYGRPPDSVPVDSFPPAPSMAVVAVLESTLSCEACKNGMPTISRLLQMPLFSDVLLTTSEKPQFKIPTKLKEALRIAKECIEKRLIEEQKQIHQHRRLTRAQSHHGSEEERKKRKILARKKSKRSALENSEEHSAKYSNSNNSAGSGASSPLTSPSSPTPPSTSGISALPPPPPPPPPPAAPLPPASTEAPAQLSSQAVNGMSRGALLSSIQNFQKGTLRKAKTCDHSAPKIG

For assay [2], the target named is T2, metadherin (MTDH) (Homo sapiens, UniProt Q86UE4).
T2 sequence (Q86UE4 1-582): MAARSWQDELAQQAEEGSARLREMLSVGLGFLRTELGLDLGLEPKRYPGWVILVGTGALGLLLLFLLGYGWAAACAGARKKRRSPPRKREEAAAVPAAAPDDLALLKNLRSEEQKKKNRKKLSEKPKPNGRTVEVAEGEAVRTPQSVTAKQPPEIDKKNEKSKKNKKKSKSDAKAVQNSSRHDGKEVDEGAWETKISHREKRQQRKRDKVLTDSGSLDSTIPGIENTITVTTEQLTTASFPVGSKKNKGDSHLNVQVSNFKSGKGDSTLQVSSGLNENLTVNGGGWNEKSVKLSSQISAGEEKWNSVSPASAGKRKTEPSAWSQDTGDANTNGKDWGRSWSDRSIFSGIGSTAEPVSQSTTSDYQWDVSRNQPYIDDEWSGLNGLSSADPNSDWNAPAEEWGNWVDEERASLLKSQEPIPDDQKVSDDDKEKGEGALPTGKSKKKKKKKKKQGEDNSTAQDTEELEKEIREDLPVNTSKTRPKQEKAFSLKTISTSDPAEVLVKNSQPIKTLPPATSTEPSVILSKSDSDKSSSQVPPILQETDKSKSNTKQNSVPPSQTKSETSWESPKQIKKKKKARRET

For assay [3], the target named is T2, metadherin (MTDH). The source holds these as a separate data set.
The target in assay [4] is T1, PX domain containing serine/threonine kinase-like (PXK). The source holds these as a separate data set.

Read-outs that look alike come from different tables or passages of the source.

For orientation: Kd means a measure of binding affinity in units of concentration. A high value points to lower affinity. On to `O=C(O[C@@H]1Cc2c(O)cc(O)cc2O[C@@H]1c1cc(O)c(O)c(O)c1)c1cc(O)c(O)c(O)c1` [EGCG], for which the dissociation constant (Kd) in assay [1] was found to be 2420 µM; at metadherin (MTDH) [2] it was 0.27 µM.

`CC(=O)Oc1cc(OC(C)=O)c2c(c1)O[C@H](c1cc(OC(C)=O)c(OC(C)=O)c(OC(C)=O)c1)[C@H](OC(=O)c1cc(OC(C)=O)c(OC(C)=O)c(OC(C)=O)c1)C2` [ProEGCG]: the dissociation constant Kd on metadherin (MTDH) [3] was 517 µM; in assay [4] it was 1700 µM.

These data come from paper PMC10859541 (Journal of Pharmaceutical Analysis, 2023).
